Laboratory results published in US10660789B2, “1,4-dihydropyridine derivatives with HSP modulating activity” (Richter Gedeon NYRT., priority 2011, dated 2020).
Where a name gives a salt, the structure may show the parent alone.

Legend:
Hsp25 = experiment: Other in vitro effects, Hsp25 (Table 3); type: cell-based, mouse and human; design: key: +: co-inducing activity; −: silencing activity; 0: with the experimental methods applied no other HSP modulating effects could be identified
Protocol: (§1) The Hsp co-inducing effect of the compounds on stress response was tested on B16 mouse melanoma and SHSY5Y human neuroblastoma cell lines stably transfected with Hsp promoter probing plasmids. This kind of promoter probing, using the promoter region of a given gene conjugated with fluorescent protein is used as a best and fastest test system for finding drugs which modulate the activity of the gene followed by the given promoter (Wyshocka et al., Mol. Cel. Biochem. 215:153-156, 2000).
(§2) Reporter plasmids, containing the Hsp70 and/or Hsp25 promoter conjugated to either YFP or GFP (yellow or green fluorescent protein), were stably transfected into the cells and the expression of YFP or GFP was followed by flow cytometry. Cells were either kept at 37° C. or exposed to heat shock at 42° C. for 1 hour followed by a 16 hour recovery period at 37° C. in the presence or absence of different concentrations of the test compound. After recovery the expression of YFP or GFP which is in straight correlation with the promoter activity of Hsp70 or Hsp27 genes was followed by measuring the fluorescence intensity of the cells by flow cytometry. Fluorescence intensity is in straight correlation with the amount of fluorescent protein (GFP or YFP) produced under the control of hsp promoter. The mean fluorescence intensity of YFP or GFP produced is shown as “Hsp promoter activity”.
(§3) Cells were homogenously distributed on 6-well plates in 1×10^5 cells/well density. B16-pHsp25-GFP and B16-pHsp70-YFP melanoma cells were grown in RPMI-1640 medium supplemented with 10% Fetal bovine serum (FBS), penicillin (200 units/ml), streptomycin (200 μg/ml) and 2 mM L-Glutamine. […] The changes in cells' fluorescence were detected using BD FACSCalibur flow cytometer.
SY-SY5Y and B16 cells were extracted in NP-40 lysis buffer (PBS pH 7.4, 1% protease inhibitor coctail and 1% Triton X-100). […] The immune complexes were detected with chemo-luminescent substrate of peroxidase according to the supplier's instructions. Images taken from the membranes were analyzed using AlphaEase FC software.

Hsp25 promoter = experiment: Hsp25 promoter-GFP reporter in SHSY5Y cells, flow cytometry; type: cell-based, human; conditions: FIG. 2
Protocol: as §1, §2
The fluorescence intensity of GFP and YFP […].
Selectivity of the Hsp25 co-inducing activity of compound of Ex. 11 is shown on FIG. 3. […] The fluorescence intensity of GFP produced as a result of Hsp25 promoter activity was measured by flow cytometry.
as §3

B16F10 melanoma cells = experiment: Lysosomal destabilization, FITC-conjugated dextran fluorescence; type: cell-based, mouse
Description: Emerging evidence argues that both classic apoptosis pathways and lysosomal death pathways must be suppressed for effective development and progression of cancer. Tumor invasion and metastasis are associated with altered lysosomal trafficking and increased expression of the lysosomal proteases termed cathepsins. […] Normal cells respond to death stimuli by undergoing caspase-dependent apoptosis, the best characterized form of programmed cell death. In contrast, cancer cells frequently escape spontaneous and therapy-induced caspase activation due to acquired mutations in the apoptotic machinery. Apoptosis-resistant cancer cells are, however, not completely resistant to cell death, but can die via alternative cell death pathways often involving non-caspase proteases such as lysosomal cathepsins. Therefore, development of novel anticancer drugs that can trigger alternative death pathways that are independent of commonly mutated apoptosis-regulating genes is of great importance. […] Lysosomal destabilization could be followed by measuring the fluorescence intensity of the pH sensitive FITC-conjugated dextran. Lysosomal pH was determined by allowing the B16F10 melanoma cells to endocytose different amount of FITC-conjugated dextran (40 kDa) (from 10 mg/ml stock) for 24 h. […] Fluorescence was measured by plate reader using an excitation and emission wavelengths of 485 nm and 538 nm respectively.

COC(=O)C1=C(CCN(C)C)N(C)C(CCN(C)C)=C(C(=O)OC)C1c1ccc(C(F)(F)F)cc1 [Example 23, Dimethyl 4-(4-trifuoromethylphenyl)-2,6-bis-(2-dimethylaminoethyl)-1-methyl-1,4-dihydropyridine-3,5-dicarboxylate dihydrochloride]
Other in vitro effects: Hsp25 (Hsp25): Hsp25 0 | effect on the expression of Hsp25 (Hsp25 promoter): no effect on the expression of Hsp25 | Other in vitro effects (lysosomes) (B16F10 melanoma cells): lysosome destabilization | fluorescence intensity of FITC-conjugated dextran (lysosomal pH, lysosomal destabilization) (B16F10 melanoma cells; Ex. 23 5 μM for 6 hours, compared to Siramesine (20 μm), FIG. 9): significantly higher fluorescence intensity
